# Assay results as given in PubChem BioAssay (NCI).
# Several values for one entry are separate records, joined by “and”; a condition that tells them apart may be missing. Equal values may be shown once.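 Tested at 5 concentrations; 48 h exposure; 96-well plates; endpoints linearly interpolated, else capped at highest concentration. GI50 is the concentration that inhibits growth by half. The concentration for full growth arrest is given as TGI.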
# Assays:
# Assay in all cases: NCI-60 cell line screen, 48 h
# [1] = tested on: 786-0 renal
# [2] = tested on: A498 renal
# [3] = tested on: A549 NSCLC
# [4] = tested on: ACHN renal
# [5] = tested on: BT-549 breast
# [6] = tested on: CAKI-1 renal
# [7] = tested on: CCRF-CEM leukemia
# [8] = tested on: COLO 205 colon
# [9] = tested on: DU-145 prostate
# [10] = tested on: EKVX NSCLC
# [11] = tested on: HCC-2998 colon
# [12] = tested on: HCT-116 colon
# [13] = tested on: HCT-15 colon
# [14] = tested on: HOP-62 NSCLC
# [15] = tested on: HOP-92 NSCLC
# [16] = tested on: HS 578T breast
# [17] = tested on: HT29 colon
# [18] = tested on: IGROV1 ovarian
# [19] = tested on: K-562 leukemia
# [20] = tested on: KM12 colon
# [21] = tested on: LOX IMVI melanoma
# [22] = tested on: M14 melanoma
# [23] = tested on: MALME-3M melanoma
# [24] = tested on: MCF7 breast
# [25] = tested on: MDA-MB-231 breast
# [26] = tested on: MDA-MB-435
# [27] = tested on: MDA-N
# [28] = tested on: MOLT-4 leukemia
# [29] = tested on: NCI-H226 lung
# [30] = tested on: NCI-H23 lung
# [31] = tested on: NCI-H460 lung
# [32] = tested on: NCI-H522 lung
# [33] = tested on: NCI/ADR-RES ovarian
# [34] = tested on: OVCAR-3 ovarian
# [35] = tested on: OVCAR-4 ovarian
# [36] = tested on: OVCAR-5 ovarian
# [37] = tested on: OVCAR-8 ovarian
# [38] = tested on: PC-3 prostate
# [39] = tested on: RPMI-8226 leukemia
# [40] = tested on: RXF 393 renal
# [41] = tested on: SF-268 CNS
# [42] = tested on: SF-295 CNS
# [43] = tested on: SF-539 CNS
# [44] = tested on: SK-MEL-2 melanoma
# [45] = tested on: SK-MEL-28 melanoma
# [46] = tested on: SK-MEL-5 melanoma
# [47] = tested on: SK-OV-3 ovarian
# [48] = tested on: SN12C renal
# [49] = tested on: SNB-19 CNS
# [50] = tested on: SNB-75 CNS
# [51] = tested on: SR leukemia
# [52] = tested on: SW-620 colon
# [53] = tested on: T-47D breast
# [54] = tested on: TK-10 renal
# [55] = tested on: U251 CNS
# [56] = tested on: UACC-257 melanoma
# [57] = tested on: UACC-62 melanoma
# [58] = tested on: UO-31 renal
# [59] = tested on: HL-60(TB) leukemia
compound,measurement,setting,value
CCCC(=O)Nc1cn(COC)c(C(=O)N2C[C@H]3C[C@@]34C2=CC(=O)c2[nH]cc(C)c24)n1,GI50,[1],1.98 µM
same,TGI,[2],17.9 µM
same,TGI,[3],50 µM and > 100 µM
same,TGI,[4],50 µM and > 100 µM
same,GI50,[5],5.51 µM
same,TGI,[5],43.1 µM and 58.9 µM
same,GI50,[6],5.42 µM
same,TGI,[6],17.3 µM and > 100 µM
same,GI50,[7],0.555 µM
same,GI50,[8],4.41 µM
same,TGI,[8],15.9 µM and 32.4 µM
same,GI50,[9],2.56 µM
same,TGI,[9],5 µM and 11.4 µM
same,GI50,[10],39.1 µM
same,TGI,[10],39 µM and > 100 µM
same,GI50,[11],1.89 µM
same,TGI,[11],9.14 µM and 6.59 µM
same,GI50,[12],2.32 µM
same,TGI,[12],50 µM and 12 µM
same,TGI,[13],50 µM and 72.2 µM
same,GI50,[14],4.52 µM
same,TGI,[14],50 µM and > 100 µM
same,GI50,[15],5.12 µM
same,TGI,[15],26.8 µM and 31.4 µM
same,GI50,[16],20.9 µM
same,TGI,[16],43.1 µM and > 100 µM
same,GI50,[17],12.4 µM
same,TGI,[17],25.2 µM and > 100 µM
same,GI50,[18],6.68 µM
same,TGI,[18],50 µM and > 100 µM
same,GI50,[19],7.41 µM
same,TGI,[19],50 µM and > 100 µM
same,GI50,[20],8.81 µM
same,TGI,[20],> 100 µM
same,GI50,[21],3.13 µM
same,TGI,[21],35.4 µM and > 100 µM
same,GI50,[22],7.14 µM
same,TGI,[22],50 µM and > 100 µM
same,GI50,[23],4.22 µM
same,TGI,[23],9.45 µM and 26 µM
same,GI50,[24],3.53 µM
same,TGI,[24],50 µM and > 100 µM
same,GI50,[25],10.7 µM
same,TGI,[25],39.7 µM and > 100 µM
same,GI50,[26],13.4 µM
same,TGI,[26],26.2 µM and > 100 µM
same,GI50,[27],7.62 µM
same,TGI,[27],19.5 µM and 59.6 µM
same,GI50,[28],1.6 µM
same,TGI,[29],39.4 µM
same,GI50,[30],2.59 µM
same,TGI,[30],11.8 µM and 16.7 µM
same,TGI,[31],15.9 µM and 28.7 µM
same,GI50,[32],1.84 µM
same,TGI,[32],8.62 µM and 14.7 µM
same,GI50,[33],12 µM
same,TGI,[33],15.8 µM and 43.6 µM
same,GI50,[34],4.93 µM
same,TGI,[34],24.5 µM and 72 µM
same,TGI,[35],30 µM and 36.5 µM
same,GI50,[36],6.13 µM
same,TGI,[36],50 µM and > 100 µM
same,TGI,[37],14.6 µM and 20.1 µM
same,TGI,[38],50 µM and > 100 µM
same,GI50,[39],3.21 µM
same,TGI,[39],22.8 µM and > 100 µM
same,GI50,[40],3.05 µM
same,TGI,[40],26.9 µM and 8.82 µM
same,GI50,[41],3.4 µM
same,TGI,[41],50 µM and > 100 µM
same,GI50,[42],5 µM
same,TGI,[42],50 µM and 67.2 µM
same,GI50,[43],1.87 µM
same,TGI,[43],37.7 µM and 38.4 µM
same,GI50,[44],7.39 µM
same,TGI,[44],50 µM and > 100 µM
same,GI50,[45],17.3 µM
same,TGI,[45],35.7 µM and > 100 µM
same,GI50,[46],2.53 µM
same,TGI,[46],16 µM and 9.93 µM
same,GI50,[47],26.7 µM
same,TGI,[47],50 µM and > 100 µM
same,GI50,[48],5.55 µM
same,TGI,[48],42.9 µM and 71.2 µM
same,GI50,[49],10.4 µM
same,TGI,[49],50 µM and > 100 µM
same,GI50,[50],32 µM
same,TGI,[50],21.6 µM and > 100 µM
same,TGI,[51],> 100 µM
same,GI50,[52],13.4 µM
same,TGI,[52],50 µM and > 100 µM
same,GI50,[53],2.91 µM
same,TGI,[53],25.4 µM and 34.8 µM
same,TGI,[54],46.2 µM
same,TGI,[55],50 µM and > 100 µM
same,GI50,[56],10.5 µM
same,TGI,[56],18.7 µM and 83.3 µM
same,TGI,[57],14.5 µM and 26.1 µM
same,GI50,[58],3.47 µM
same,TGI,[58],28.1 µM and 73.1 µM
C[N+]1(CCCCN2c3ccccc3Sc3cc(N=[N+]=[N-])ccc32)CCN(C(=O)CCNC(=O)Cc2ccc(C(=O)c3ccccc3)cc2)CC1,TGI,[1],> 67.5 µM
same,TGI,[2],56.3 µM
same,TGI,[3],> 72.6 µM
same,TGI,[4],37.2 µM
same,TGI,[5],> 71.4 µM
same,TGI,[6],57.5 µM
same,TGI,[7],64.2 µM
same,TGI,[8],34.9 µM
same,TGI,[9],35.1 µM
same,TGI,[10],> 81.5 µM
same,TGI,[11],39.9 µM
same,TGI,[12],> 75.4 µM
same,TGI,[13],55.9 µM
same,TGI,[59],35.5 µM
same,TGI,[14],44.9 µM
same,TGI,[15],40.5 µM
same,TGI,[16],> 83.1 µM
same,TGI,[17],52.6 µM
same,TGI,[18],> 77.6 µM
same,TGI,[19],> 57.7 µM
same,TGI,[20],61.2 µM
same,TGI,[21],> 78.1 µM
same,TGI,[22],> 72.9 µM
same,TGI,[23],70.8 µM
same,TGI,[24],68 µM
same,TGI,[25],81 µM
same,TGI,[26],> 67.7 µM
same,TGI,[27],> 71.9 µM
same,TGI,[28],> 76.8 µM
same,TGI,[29],> 85.7 µM
same,TGI,[30],> 82.4 µM
same,TGI,[31],> 74.2 µM
same,TGI,[32],> 76.9 µM
same,TGI,[33],> 91.1 µM
same,TGI,[34],89.2 µM
same,TGI,[35],48.8 µM
same,TGI,[36],56.1 µM
same,TGI,[37],> 100 µM
same,TGI,[38],40.7 µM
same,TGI,[39],61.4 µM
same,TGI,[40],> 80 µM
same,TGI,[41],71.5 µM
same,TGI,[42],45.5 µM
same,TGI,[43],> 76.9 µM
same,TGI,[44],> 79.4 µM
same,TGI,[45],46.4 µM
same,TGI,[46],> 62.6 µM
same,TGI,[47],62 µM
same,TGI,[48],53.5 µM
same,TGI,[49],66.7 µM
same,TGI,[50],43.3 µM
same,TGI,[51],65.5 µM
same,TGI,[52],> 74.6 µM
same,TGI,[53],> 76.4 µM
same,TGI,[54],26.5 µM
same,TGI,[55],> 87.3 µM
same,TGI,[56],> 75.8 µM
same,TGI,[57],> 69.2 µM
same,TGI,[58],39 µM
